Results published in EP4596574A1, “GLP-1/GCG/GIP TRIPLE-RECEPTOR AGONIST AND USE THEREOF” (Sunshine Lake Pharma Co., Ltd., priority 2022, dated 2024).
Where two headings read alike, the source gives them in different places. Marks after values point to notes of the source that are not given here.

Experiments:
GIPR = target: T1, GIPR (Homo sapiens, UniProt P48546); experiment: In vitro cell activity, cAMP production in HEK293 cells expressing GIPR; type: cell-based
T1 construct: expressed in transfected cells; host or cells: HEK293 (HEK293-GIPR)
T1 sequence (P48546 22-466): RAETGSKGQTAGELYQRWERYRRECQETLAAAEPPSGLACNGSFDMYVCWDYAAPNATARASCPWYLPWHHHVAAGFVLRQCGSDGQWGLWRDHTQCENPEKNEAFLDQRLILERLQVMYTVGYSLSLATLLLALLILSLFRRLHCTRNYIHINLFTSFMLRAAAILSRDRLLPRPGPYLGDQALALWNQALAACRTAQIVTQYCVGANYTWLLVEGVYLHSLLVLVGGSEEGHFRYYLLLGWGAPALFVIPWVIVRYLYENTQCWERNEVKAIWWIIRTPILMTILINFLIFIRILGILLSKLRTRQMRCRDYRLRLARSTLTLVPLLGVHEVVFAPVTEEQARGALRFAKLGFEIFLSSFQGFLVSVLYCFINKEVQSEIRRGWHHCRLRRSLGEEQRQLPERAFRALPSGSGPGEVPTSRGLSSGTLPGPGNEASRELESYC
In short: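 cAMP accumulation is quantified by homogeneous TR-FRET (cAMP-d2 plus anti-cAMP cryptate) in GIPR-expressing HEK293 cells seeded from a 4×10^5 cells/mL suspension and treated with compound. The signal ratio is plotted against concentration and fitted to a four-parameter curve to give EC50.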

[1] = Glucose tolerance assessment in normal C57BL/6 mice (Example 4); type: in vivo; conditions: for Blood glucose level (mM) 15 min / Blood glucose level (mM) 30 min / Blood glucose level (mM) 60 min / Blood glucose level (mM) 90 min / Blood glucose level (mM) 0 min / AUC0-90 min: 3 nmol/kg s.c. single dose, 24 h after administration; for Blood glucose level (mM) 15 min: 15 min after 2 g/kg glucose i.p.; for Blood glucose level (mM) 30 min: 30 min after 2 g/kg glucose i.p.; for Blood glucose level (mM) 60 min: 60 min after 2 g/kg glucose i.p.; for Blood glucose level (mM) 90 min: 90 min after 2 g/kg glucose i.p.; for Blood glucose level (mM) 0 min: basal before 2 g/kg glucose i.p.; for AUC0-90 min: blood glucose AUC, 2 g/kg glucose i.p.
Protocol: Twelve hours after the single administration, the animals were fasted for 12 hours and had free access to water. Blood was collected from the tail vein to determine the basal blood glucose level of each group of animals, and then 2 g/kg glucose solution was injected intraperitoneally. Blood glucose was tested at 15, 30, 60, and 90 min after glucose administration. The blood glucose concentration-time curve was drawn according to the blood glucose values measured at different time points, and the AUC0~90min of each dose group was calculated as shown in Table 4 and Figure 1. Table 4: Effects of single administration of HEC-PT74, HEC-PT75, HEC-PT77, HEC-PT78, HEC-PT80, and HEC-PT82 on glucose tolerance in normal C57 mice 24 h after administration

GCGR = target: T2, GCGR (Homo sapiens, UniProt P47871); experiment: In vitro cell activity, cAMP production in HEK293 cells expressing GCGR; type: cell-based
T2 construct: expressed in transfected cells; host or cells: HEK293 (HEK293-GCGR)
T2 sequence (P47871 26-477, species assumed): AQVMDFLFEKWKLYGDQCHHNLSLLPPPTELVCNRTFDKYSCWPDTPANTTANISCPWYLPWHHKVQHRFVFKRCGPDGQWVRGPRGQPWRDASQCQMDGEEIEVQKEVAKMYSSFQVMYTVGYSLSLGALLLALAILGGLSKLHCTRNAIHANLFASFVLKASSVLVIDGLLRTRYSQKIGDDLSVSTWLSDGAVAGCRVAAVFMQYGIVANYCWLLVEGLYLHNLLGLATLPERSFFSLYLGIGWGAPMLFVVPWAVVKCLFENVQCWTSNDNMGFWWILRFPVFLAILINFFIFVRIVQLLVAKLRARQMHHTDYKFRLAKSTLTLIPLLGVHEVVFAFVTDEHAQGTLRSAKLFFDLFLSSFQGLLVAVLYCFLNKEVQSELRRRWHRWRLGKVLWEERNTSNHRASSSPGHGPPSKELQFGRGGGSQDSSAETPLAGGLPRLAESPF
In short: (§1)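 Cells were plated at 4×10^5 cells/mL, and detection reagents (cAMP-d2, anti-cAMP cryptate, 1:1) were incubated 1 h at room temperature in the dark or overnight at 4 °C.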

GLP-1R = target: T3, GLP-1R (Homo sapiens, UniProt P43220); experiment: In vitro cell activity, cAMP production in HEK293 cells expressing GLP-1R; type: cell-based
T3 construct: expressed in transfected cells; host or cells: HEK293 (HEK293-GLP-1R)
T3 sequence (P43220 24-463, species assumed): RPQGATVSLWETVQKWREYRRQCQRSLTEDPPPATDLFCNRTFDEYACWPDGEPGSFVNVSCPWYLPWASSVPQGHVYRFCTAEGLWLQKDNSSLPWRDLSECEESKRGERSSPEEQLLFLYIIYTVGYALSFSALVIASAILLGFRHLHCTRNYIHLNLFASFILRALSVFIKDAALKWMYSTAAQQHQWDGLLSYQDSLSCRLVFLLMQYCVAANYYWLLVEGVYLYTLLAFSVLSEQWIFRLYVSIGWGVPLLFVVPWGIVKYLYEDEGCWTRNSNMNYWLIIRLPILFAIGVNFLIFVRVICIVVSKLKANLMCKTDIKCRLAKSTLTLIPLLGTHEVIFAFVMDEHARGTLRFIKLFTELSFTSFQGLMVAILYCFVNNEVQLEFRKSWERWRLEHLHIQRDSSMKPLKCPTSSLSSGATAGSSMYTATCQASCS
In short: as §1

[2] = In vivo efficacy evaluation in db/db mouse model (blood glucose); set-up: species or system db/db mice
Protocol: Blood glucose was tested before each administration.

Structure (SMILES): CC[C@H](C)[C@H](NC(=O)[C@H](Cc1ccccc1)NC(=O)[C@H](C)NC(=O)[C@H](CCCNC(=N)N)NC(=O)[C@H](CCC(N)=O)NC(=O)[C@H](C)NC(=O)[C@H](CCCCNC(=O)COCCOCCNC(=O)CC[C@H](NC(=O)CCCCCCCCCCCCCCCCC(=O)O)C(=O)O)NC(=O)[C@H](CCC(=O)O)NC(=O)[C@H](CC(=O)O)NC(=O)[C@H](CC(C)C)NC(=O)[C@H](CC(C)C)NC(=O)[C@@H](NC(=O)[C@H](CO)NC(=O)[C@H](Cc1ccc(O)cc1)NC(=O)[C@H](CC(=O)O)NC(=O)[C@H](CO)NC(=O)[C@@H](NC(=O)[C@](C)(Cc1ccccc1F)NC(=O)[C@@H](NC(=O)CNC(=O)[C@H](Cc1c[nH]cn1)NC(=O)C(C)(C)NC(=O)[C@@H](N)Cc1ccc(O)cc1)[C@@H](C)O)[C@@H](C)O)[C@@H](C)CC)C(=O)N[C@@H](CCC(=O)O)C(=O)N[C@@H](Cc1ccc(O)cc1)C(=O)N[C@@H](CC(C)C)C(=O)N[C@@H](CC(C)C)C(=O)N[C@@H](C)C(=O)NCC(=O)NCC(=O)N1CCC[C@H]1C(=O)N[C@@H](CO)C(=O)N[C@@H](CO)C(=O)NCC(=O)N[C@@H](C)C(=O)N1CCC[C@H]1C(=O)N1CCC[C@H]1C(=O)N1CCC[C@H]1C(=O)N[C@@H](CO)C(=O)O [HEC-PT75]
- EC50 (GIPR): 0.0377 nM
- Blood glucose level (mM) 15 min [1]: 11.1 ± 3.1 mM
- Blood glucose level (mM) 30 min [1]: 8.9 ± 3.1 mM
- Blood glucose level (mM) 60 min [1]: 7.4 ± 2.0 mM
- Blood glucose level (mM) 90 min [1]: 5.6 ± 0.7 mM
- Blood glucose level (mM) 0 min [1]: 4.0 ± 0.4 mM
- improvement of glucose tolerance compared with LY3298176 ([1]; 24 hours after a single administration, 3 nmol/kg): more effective in improving glucose tolerance than the positive control LY3298176
- AUC0-90 min [1]: 682.0±166.7^a
- EC50 (GCGR): 0.0672 nM
- EC50 (GLP-1R): 0.108 nM

Structure (SMILES): CC[C@H](C)[C@H](NC(=O)[C@H](Cc1ccccc1)NC(=O)[C@H](CCC(=O)O)NC(=O)[C@H](CCC(N)=O)NC(=O)[C@H](CCC(N)=O)NC(=O)[C@H](C)NC(=O)[C@H](CCCCNC(=O)COCCOCCNC(=O)CC[C@H](NC(=O)CCCCCCCCCCCCCCCCCCC(=O)O)C(=O)O)NC(=O)[C@H](CCC(=O)O)NC(=O)[C@H](CC(=O)O)NC(=O)[C@H](CC(C)C)NC(=O)[C@H](CC(C)C)NC(=O)[C@@H](NC(=O)[C@H](CO)NC(=O)[C@H](Cc1ccc(O)cc1)NC(=O)[C@H](CC(=O)O)NC(=O)[C@H](CO)NC(=O)[C@@H](NC(=O)[C@](C)(Cc1ccccc1F)NC(=O)[C@@H](NC(=O)CNC(=O)[C@H](CCC(N)=O)NC(=O)C(C)(C)NC(=O)[C@@H](N)Cc1ccc(O)cc1)[C@@H](C)O)[C@@H](C)O)[C@@H](C)CC)C(=O)N[C@@H](CCC(=O)O)C(=O)N[C@@H](Cc1c[nH]c2ccccc12)C(=O)N[C@@H](CC(C)C)C(=O)N[C@@H](CC(C)C)C(=O)N[C@@H](CCC(=O)O)C(=O)NCC(=O)NCC(=O)N1CCC[C@H]1C(=O)N[C@@H](CO)C(=O)N[C@@H](CO)C(=O)NCC(=O)N[C@@H](C)C(=O)N1CCC[C@H]1C(=O)N1CCC[C@H]1C(=O)N1CCC[C@H]1C(=O)N[C@@H](CO)C(=O)O [HEC-PT78]
- EC50 (GIPR): 0.215 nM
- Blood glucose level (mM) 15 min [1]: 15.8 ± 2.6 mM
- Blood glucose level (mM) 30 min [1]: 12.0 ± 2.5 mM
- Blood glucose level (mM) 60 min [1]: 9.2 ± 1.5 mM
- Blood glucose level (mM) 90 min [1]: 7.3 ± 0.7 mM
- Blood glucose level (mM) 0 min [1]: 4.6 ± 0.6 mM
- AUC0-90 min [1]: 927.1±135.2^a
- EC50 (GCGR): 4.5 nM
- EC50 (GLP-1R): 0.532 nM

Structure (SMILES): CC[C@H](C)[C@H](NC(=O)[C@H](Cc1ccccc1)NC(=O)[C@H](C)NC(=O)[C@H](CCCNC(=N)N)NC(=O)[C@H](CCC(N)=O)NC(=O)[C@H](C)NC(=O)[C@H](CCCCNC(=O)COCCOCCNC(=O)CC[C@H](NC(=O)CCCCCCCCCCCCCCCCCCC(=O)O)C(=O)O)NC(=O)[C@H](CCC(=O)O)NC(=O)[C@H](CC(=O)O)NC(=O)[C@H](CC(C)C)NC(=O)[C@H](CC(C)C)NC(=O)[C@@H](NC(=O)[C@H](CO)NC(=O)[C@H](Cc1ccc(O)cc1)NC(=O)[C@H](CC(=O)O)NC(=O)[C@H](CO)NC(=O)[C@@H](NC(=O)[C@](C)(Cc1ccccc1F)NC(=O)[C@@H](NC(=O)CNC(=O)[C@H](CCC(N)=O)NC(=O)C(C)(C)NC(=O)[C@@H](N)Cc1ccc(O)cc1)[C@@H](C)O)[C@@H](C)O)[C@@H](C)CC)C(=O)N[C@@H](CCC(=O)O)C(=O)N[C@@H](Cc1ccc(O)cc1)C(=O)N[C@@H](CC(C)C)C(=O)N[C@@H](CC(C)C)C(=O)N[C@@H](CCC(=O)O)C(=O)NCC(=O)NCC(=O)N1CCC[C@H]1C(=O)N[C@@H](CO)C(=O)N[C@@H](CO)C(=O)NCC(=O)N[C@@H](C)C(=O)N1CCC[C@H]1C(=O)N1CCC[C@H]1C(=O)N1CCC[C@H]1C(=O)N[C@@H](CO)C(=O)O [HEC-PT85]
- EC50 (GIPR): 0.237 nM
- blood glucose after administration ([2]; db/db mice, 10 nmol/kg): significantly reduce blood glucose
- Random blood glucose (mM) D0 ([2]; db/db mice, 10 nmol/kg s.c. once every three days, D0 (before first dose)): 26.2 ± 2.8 mM
- Random blood glucose (mM) D3 ([2]; db/db mice, 10 nmol/kg s.c. once every three days, D3): 11.8 ± 3.6 mM
- Random blood glucose (mM) D4 ([2]; db/db mice, 10 nmol/kg s.c. once every three days, D4): 17.6 ± 3.1 mM
- Random blood glucose (mM) D5 ([2]; db/db mice, 10 nmol/kg s.c. once every three days, D5): 20.2 ± 5.5 mM
- Random blood glucose (mM) D6 ([2]; db/db mice, 10 nmol/kg s.c. once every three days, D6): 17.3 ± 3.4 mM
- Random blood glucose (mM) D7 ([2]; db/db mice, 10 nmol/kg s.c. once every three days, D7): 21.3 ± 3.5 mM
- Random blood glucose (mM) D10 ([2]; db/db mice, 10 nmol/kg s.c. once every three days, D10): 11.8 ± 3.8 mM
- Random blood glucose (mM) D13 ([2]; db/db mice, 10 nmol/kg s.c. once every three days, D13): 14.7 ± 4.9 mM
- Random blood glucose (mM) D16 ([2]; db/db mice, 10 nmol/kg s.c. once every three days, D16): 12.8 ± 3.9 mM
- Random blood glucose (mM) D19 ([2]; db/db mice, 10 nmol/kg s.c. once every three days, D19): 13.7 ± 2.5 mM
- Random blood glucose (mM) D22 ([2]; db/db mice, 10 nmol/kg s.c. once every three days, D22): 17.2 ± 4.2 mM
- Random blood glucose (mM) D25 ([2]; db/db mice, 10 nmol/kg s.c. once every three days, D25): 15.7±4.5^a mM
- Random blood glucose (mM) 6 h ([2]; db/db mice, 10 nmol/kg s.c., 6 h): 15.3 ± 5.4 mM
- Random blood glucose (mM) 24 h ([2]; db/db mice, 10 nmol/kg s.c., 24 h): 10.1 ± 3.7 mM
- Random blood glucose (mM) 48 h ([2]; db/db mice, 10 nmol/kg s.c., 48 h): 12.9 ± 4.2 mM
- time at which blood glucose levels reached the lowest level ([2]; db/db mice, 10 nmol/kg, after administration): about 24 hours
- blood glucose lowering after long-term administration compared with LY3298176 ([2]; db/db mice, long-term repeated administration): not inferior to the positive control LY3298176
- blood glucose reducing effect after administration compared with LY3298176 ([2]; db/db mice, same dose 10 nmol/kg): slightly better than the positive control LY3298176
- blood glucose level after long-term administration ([2]; type II diabetes model db/db mice): significantly improve the blood glucose level
- EC50 (GCGR): 0.602 nM
- EC50 (GLP-1R): 0.255 nM

Structure (SMILES): CC[C@H](C)[C@H](NC(=O)[C@H](Cc1ccccc1)NC(=O)[C@H](C)NC(=O)[C@H](Cc1c[nH]cn1)NC(=O)[C@H](CCC(N)=O)NC(=O)[C@H](C)NC(=O)[C@H](CCCCNC(=O)COCCOCCNC(=O)CC[C@H](NC(=O)CCCCCCCCCCCCCCCCC(=O)O)C(=O)O)NC(=O)[C@H](CCCNC(=N)N)NC(=O)[C@H](CC(=O)O)NC(=O)[C@H](CC(C)C)NC(=O)[C@H](CC(C)C)NC(=O)[C@@H](NC(=O)[C@H](CO)NC(=O)[C@H](Cc1ccc(O)cc1)NC(=O)[C@H](CC(=O)O)NC(=O)[C@H](CO)NC(=O)[C@@H](NC(=O)[C@](C)(Cc1ccccc1F)NC(=O)[C@@H](NC(=O)CNC(=O)[C@H](CCC(N)=O)NC(=O)C(C)(C)NC(=O)[C@@H](N)Cc1c[nH]cn1)[C@@H](C)O)[C@@H](C)O)[C@@H](C)CC)C(=O)N[C@@H](CCC(=O)O)C(=O)N[C@@H](Cc1ccc(O)cc1)C(=O)N[C@@H](CC(C)C)C(=O)N[C@@H](CC(C)C)C(=O)N[C@@H](C)C(=O)NCC(=O)NCC(=O)N1CCC[C@H]1C(=O)N[C@@H](CO)C(=O)N[C@@H](CO)C(=O)NCC(=O)N[C@@H](C)C(=O)N1CCC[C@H]1C(=O)N1CCC[C@H]1C(=O)N1CCC[C@H]1C(=O)N[C@@H](CO)C(=O)O [HEC-PT155]
- EC50 (GIPR; HEK293-GIPR cells, cAMP, read-out: GIPR (EC50)): 0.0509 nM
- EC50 (GCGR; HEK293-GCGR cells, cAMP, read-out: GCGR (EC50)): 0.0581 nM
- EC50 (GLP-1R; HEK293-GLP-1R cells, cAMP, read-out: GLP-1R (EC50)): 0.0555 nM
